What was measured:
[1] = system: pain induced by heat contact stimulation; test: Analgesic activity, Eddy's test in mice (hot plate); assay type: in vivo; details: for inhibition in vivo at 400 mg/kg / ED50 / inhibition in vivo at 200 mg/kg: Mus musculus, po, 0.5 h; for inhibition in vivo at 400 mg/kg: 400 mg/kg per os; for ED50 / ED50 Eddy's test: per os, 30 minutes after administration, heat stimulus; for inhibition in vivo at 200 mg/kg: 200 mg/kg per os; for ED50 Eddy's test: 30 min
Description: (§1) Pain is induced by heat contact stimulation (mice placed on a heating plate kept at 56.5°C) and the time taken to react to the stimulus (licking of the front paws) is measured.
(§2) Batches of 10 animals selected at random are examined 30 minutes after the oral administration of the product to be tested in a gummy suspension.
(§3) The percentage of analgesic activity is established by taking as 100% activity the average response time of the control animals increased by 10 seconds.

[2] = system: pain induced by the intraperitoneal injection of acetic acid; test: Analgesic activity, Koster's test on mice (acetic acid writhing); assay type: in vivo, male mice; details: for inhibition in vivo at 400 mg/kg / ED50 / inhibition in vivo at 200 mg/kg: Mus musculus, po; for inhibition in vivo at 400 mg/kg: 400 mg/kg per os; for inhibition in vivo at 200 mg/kg: 200 mg/kg per os
Description: (§4) The pain is induced by the intraperitoneal injection of 0.10 ml/10 g of a 3% acetic acid solution.
(§5) The painful crises thus obtained (writhing of the trunk, stretching of the hind legs) are counted for 20 minutes following the injection.
(§6) The product to be tested was administered 30 minutes before the pain had been induced in batches of 10 male mice distributed at random. The percentage of analgesic activity is represented by the percentage decrease in the number of reactions established in relation to the controls.

[3] = in vivo; details: mouse, po
[4] = system: kaolin oedema; test: Anti-oedematous activity, kaolin oedema in rats (Wilhelmi and Domenjoz); assay type: in vivo, male rats; details: per os; for ED50: Rattus norvegicus, po, paw volume 5 hours after kaolin, read-out: Kaolin oedema test ED50 per os
Description: 3. […] ACTIVITY Kaolin oedema in rats in accordance with […] The product to be tested was orally administered to batches of 8 male rats distributed at random 30 minutes before the intraplantar injection of 0.15 ml. of a 10% kaolin suspension. The volume of the paw is measured by plethysmography 5 hours after injection of the irritant. For each rat, the percentage oedema is evaluated in relation to the initial volume. The percentage activity corresponds to the percentage decrease in oedema (average oedema of the treated animals in comparison with the average oedema of the control animals).

[5] = Table III
[6] = system: pain (heat stimulus and chemical stimulus); test: Antalgic power compared with amidopyrine (Eddy's and Koster's tests); assay type: in vivo, mice; details: per os, reference amidopyrine
Description: as §1, §2, §3, §4, §5, §6

[7] = per os, 30 minutes before acetic acid, chemical stimulus

SMILES	LD50 [3] [mg/kg]	ED50 [1] [mg/kg]	ED50 [2, 7] [mg/kg]	ED50 [4] [mg/kg]	further results
CC1Oc2cc(Br)c(Cl)cc2N(CC(O)CO)C1=O (stereo not drawn) [Example 4, 2-methyl-3-oxo-4-(2,3-dihydroxypropyl)-6-chloro-7-bromo-2,3-dihydro-1,4-benzoxazine]	> 1500				inhibition in vivo at 400 mg/kg [1]: 42%; inhibition in vivo at 400 mg/kg [2]: 68%
Cc1c(N(C)C)c(=O)n(-c2ccccc2)n1C [Amidopyrine, amidopyrine, reference compound]	1850	300	120		
CC1Oc2ccc([N+](=O)[O-])cc2N(CC(O)CO)C1=O (stereo not drawn) [Example 7, 2-methyl-3-oxo-4-(2,3-dihydroxypropyl)-6-nitro-2,3-dihydro-1,4-benzoxazine]	> 1000	300	300	400	DL50 per os in mice [5]: > 1000 mg/kg
Cc1ccc2c(c1)N(CC(O)CO)C(=O)C(C)O2 (stereo not drawn) [Example 5, 2-methyl-3-oxo-4-(2,3-dihydroxypropyl)-6-methyl-2,3-dihydro-1,4-benzoxaine]	> 1500				inhibition in vivo at 400 mg/kg [1]: 60%; inhibition in vivo at 400 mg/kg [2]: 66%
CC(=O)OCC(CN1C(=O)COc2ccc(Cl)cc21)OC(C)=O (stereo not drawn) [Example 16, 3-oxo-4-(2,3-diacetoxypropyl)-6-chloro-2,3-dihydro-1,4-benzoxazine]	> 1500			400	inhibition in vivo at 400 mg/kg [1]: 28%; inhibition in vivo at 400 mg/kg [2]: 51%; DL50 per os in mice [5]: > 1500 mg/kg
CCCc1cc(OC)c2c(c1)N(CC(O)CO)C(=O)C(C)O2 (stereo not drawn) [Example 6, 2-methyl-3-oxo-4-(2,3-dihydroxypropyl)-6-n-propyl-8-methoxy-2,3-dihydro-1,4-benzoxazine]	> 1500				inhibition in vivo at 400 mg/kg [1]: 52%; inhibition in vivo at 400 mg/kg [2]: 46%
COc1ccc2c(c1)N(CC(O)CO)C(=O)C(C)O2 (stereo not drawn) [Example 11, 2-methyl-3-oxo-4-(2,3-dihydroxypropyl)-6-methoxy-2,3-dihydro-1,4-benzoxazine]	> 1000			200	inhibition in vivo at 200 mg/kg [1]: 16%; inhibition in vivo at 200 mg/kg [2]: 10%; DL50 per os in mice [5]: > 1000 mg/kg
O=C1COc2ccc(Cl)cc2N1CC(O)CO (stereo not drawn) [Example 3, 3-oxo-4-(2,3-dihydroxypropyl)-6-chloro-2,3-dihydro-1,4-benzoxazine]	1700	200	100	200	anti-oedematous activity compared with phenylbutazone ([4]; reference phenylbutazone): comparable with that of phenylbutazone
CCCCC1C(=O)N(c2ccccc2)N(c2ccccc2)C1=O [Phenylbutazone, phenylbutazone, reference compound]				200	
CC1Oc2ccc(Cl)cc2N(CC(O)CO)C1=O (stereo not drawn) [Example 1, 2-methyl-3-oxo-4-(2,3-dihydroxypropyl)-6-chloro-2,3-dihydro-1,4-benzoxazine]	850	60	60		ED50 Eddy's test [1]: 63 mg/kg; ED50 Koster's test [2, 7]: 57 mg/kg; antalgic power relative to amidopyrine [6]: as much as five times the activity of this reference product
CCCCC1Oc2ccc(Cl)cc2N(CC(O)CO)C1=O (stereo not drawn) [Example 13, 2-n-butyl-3-oxo-4-(2,3-dihydroxypropyl)-6-chloro-2,3-dihydro-1,4-benzoxazine]	1500	100	100		
CCC1Oc2ccc(Cl)cc2N(CC(O)CO)C1=O (stereo not drawn) [Example 2, 2-ethyl-3-oxo-4-(2,3-dihydroxypropyl)-6-chloro-2,3-dihydro-1,4-benzoxazine]	1660	60	60		ED50 Eddy's test [1]: 61 mg/kg; antalgic power relative to amidopyrine [6]: as much as five times the activity of this reference product
CC(=O)OCC(CN1C(=O)C(C)Oc2ccc(Cl)cc21)OC(C)=O (stereo not drawn) [Example 14, 2-methyl-3-oxo-4-(2,3-diacetoxypropyl)-6-chloro-2,3-dihydro-1,4-benzoxazine]	> 1500			400	inhibition in vivo at 400 mg/kg [1]: 43%; inhibition in vivo at 400 mg/kg [2]: 35%; DL50 per os in mice [5]: > 1500 mg/kg
CCCC1Oc2ccc(Cl)cc2N(CC(O)CO)C1=O (stereo not drawn) [Example 9, 2-n-propyl-3-oxo-4-(2,3-dihydroxypropyl)-6-chloro-2,3-dihydro-1,4-benzoxazine]	> 1500	100	80		
CCC1Oc2ccccc2N(CC(O)CO)C1=O (stereo not drawn) [Example 8, 2-ethyl-3-oxo-4-(2,3-dihydroxypropyl)-2,3-dihydro-1,4-benzoxazine]	1200				inhibition in vivo at 200 mg/kg [1]: 5%; inhibition in vivo at 200 mg/kg [2]: 21%
CCC1Oc2ccc(Cl)cc2N(CC(COC(C)=O)OC(C)=O)C1=O (stereo not drawn) [Example 15, 2-ethyl-3-oxo-4-(2,3-diacetoxypropyl)-6-chloro-2,3-dihydro-1,4-benzoxazine]	> 1500			400	inhibition in vivo at 200 mg/kg [1]: 14%; inhibition in vivo at 200 mg/kg [2]: 20%; DL50 per os in mice [5]: > 1500 mg/kg
CCC1Oc2ccc(Br)cc2N(CC(O)CO)C1=O (stereo not drawn) [Example 10, 2-ethyl-3-oxo-4-(2,3-dihydroxypropyl)-6-bromo-2,3-dihydro-1,4-benzoxazine]	> 1500	200	300		
C=CCc1cc(OC)c2c(c1)N(CC(O)CO)C(=O)C(C)O2 (stereo not drawn) [Example 12, 2-methyl-3-oxo-4-(2,3-dihydroxypropyl)-6-allyl-8-methoxy-2,3-dihydro-1,4-benzoxazine]	> 1500	300	300		
